The text below walks through data of patent US6984634B2, “Bile-acid conjugates for providing sustained systemic concentrations of drugs” (XenoPort, Inc., priority 2000, dated 2006).

Molecules are shown by their SMILES. Like-named read-outs stand apart in the source and are kept apart here.

One data set addresses T1, LBAT transporter (Homo sapiens, UniProt Q14973).
T1 sequence (Q14973 1-349): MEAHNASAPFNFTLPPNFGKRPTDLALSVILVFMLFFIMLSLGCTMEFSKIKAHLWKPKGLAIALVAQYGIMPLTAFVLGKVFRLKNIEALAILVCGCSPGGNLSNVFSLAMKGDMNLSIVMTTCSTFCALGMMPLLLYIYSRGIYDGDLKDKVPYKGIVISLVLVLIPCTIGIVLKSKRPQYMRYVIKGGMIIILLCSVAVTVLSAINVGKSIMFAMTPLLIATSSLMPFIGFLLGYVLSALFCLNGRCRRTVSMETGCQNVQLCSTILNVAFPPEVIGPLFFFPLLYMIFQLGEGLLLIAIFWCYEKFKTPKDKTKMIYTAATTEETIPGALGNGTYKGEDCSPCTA
The data set can be described thus: Inhibition of radiolabeled taurocholate uptake in LBAT-expressing CHO cells. It counts as cell-based. The following applies: radiolabeled competition assay in LBAT-expressing CHO cells, taurocholate 5 μM. As for the experimental part:
(§1) (a) Inhibition of Radiolabeled Taurocholate Uptake
(§2) CHO cells transfected with the IBAT or LBAT transporter were seeded into 96-well microtiter plates at 100,000 cells/well in 100 μL DMEM containing 10% serum, glutamine and Penstrep. After overnight incubation the media was removed and test compound (25 μL) added at 2× the final desired concentration. Tritiated taurocholate (50,000 CPM/well) was diluted with cold substrate to a final concentration of 5 μM and 25 μL/well of this mixture was added to the plate. After incubating for 1 h at room temperature the solution was removed and the plate washed 4× with PBS at 4° C. 200 μL/well of scintillant is added and the plate then read in a Wallac microbeta counter. The inhibition data is processed by standard methods to calculate an inhibition constant K1 for the test compound.

Data set [1] deals with T2, IBAT transporter (Homo sapiens, UniProt Q12908).
T2 sequence (Q12908 1-348): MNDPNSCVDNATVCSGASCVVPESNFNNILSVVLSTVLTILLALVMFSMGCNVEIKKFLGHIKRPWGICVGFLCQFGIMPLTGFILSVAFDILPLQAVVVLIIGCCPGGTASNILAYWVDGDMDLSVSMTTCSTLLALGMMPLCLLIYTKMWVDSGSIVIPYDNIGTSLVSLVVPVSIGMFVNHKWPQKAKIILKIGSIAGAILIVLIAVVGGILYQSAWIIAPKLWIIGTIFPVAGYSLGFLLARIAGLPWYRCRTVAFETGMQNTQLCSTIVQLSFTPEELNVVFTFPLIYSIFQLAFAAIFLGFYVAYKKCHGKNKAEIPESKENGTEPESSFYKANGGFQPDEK
Nature of the data set: Inhibition of radiolabeled taurocholate uptake in IBAT-expressing CHO cells. The class given is cell-based. The following applies: radiolabeled competition assay in IBAT-expressing CHO cells, taurocholate 5 μM. The method, then:
as §1, §2

Data set [2] deals with T2, IBAT transporter. The data set can be described thus: Electrogenic transport in Xenopus oocytes expressing IBAT. The class given is cell-based. As to conditions: for % Max. (GDC): relative to glycodeoxycholate. The text has this:
(b) Analysis of Electrogenic Transport in Xenopus Oocytes
RNA preparation: Human IBAT Transporter cDNAs were subcloned into a modified pGEM plasmid that contains 5′ and 3′ untranslated sequences from the Xenopus β-actin gene. These sequences increase RNA stability and protein expression. Plasmid cDNA was linearized and used as template for in vitro transcription (Epicentre Technologies transcription kit, 4:1 methylated:non-methylated GTP).
Xenopus oocyte isolation. Xenopus laevis frogs were anesthetized by immersion in Tricaine ([…] in deionized water) for 15 min. Oocytes were removed and digested in frog ringer solution (90 mM NaCl, 2 mM KCl, 1 mM MgCl2, 10 mM NaHEPES, pH 7.45, no CaCl2) with 1 mg/mL collagenase (Worthington Type 3) for 80-100 min with shaking. The oocytes were washed 6 times, and the buffer changed to frog ringer solution containing CaCl2 (1.8 mM). Remaining follicle cells were removed if necessary. Cells were incubated at 16° C., and each oocyte injected with […] RNA in […] solution.
Electrophysiology measurements. Transport currents were measured 2-14 days after injection, using a standard two-electrode electrophysiology set-up (Geneclamp 500 amplifier, Digidata 1320/PCLAMP software and ADInstruments hardware and software were used for signal acquisition). Electrodes ([…]) were microfabricated using a Sutter Instrument puller and filled with 3M KCl. The bath was directly grounded (transporter currents were less than 0.3 μA). Bath flow was controlled by an automated perfusion system (ALA Scientific Instruments, solenoid valves).
For transporter pharmacology, oocytes were clamped at −60 to −90 mV, and continuous current measurements acquired using PowerLab Software and an ADInstruments digitizer. Current signals were lowpass filtered at 20 Hz and acquired at 4-8 Hz. All bath and drug-containing solutions were frog ringers solution containing CaCl2. Drugs were applied for 10-30 seconds until the induced current reached a new steady-state level, followed by a control solution until baseline currents returned to levels that preceded drug application. The difference current (baseline subtracted from peak current during drug application) reflected the net movement of charge resulting from electrogenic transport and was directly proportional to tranport rate. Recordings were made from a single oocyte for up to 60 min, enabling 30-40 separate compounds to be tested per oocyte. […] To compare results between oocytes expressing different levels of transport activity, a saturating concentration of glycodeoxycholate (300 μM) was used as a common reference to normalize results from test compounds. Using this normalization procedure Vmax (i.e. maximal induced current) for different compounds tested on different oocytes could be compared.

Data set [3] can be described thus: Pharmacokinetics in rats, Gabapentin in plasma after oral administration. As to conditions: male, Sprague-Dawley, rat, 25 mg/kg. The method, then:
The pharmacokinetics of the prodrug Cholyl-Phe-Gabapentin (9g) were examined in rats. Three groups of four male Sprague-Dawley rats (approx 200 g) with jugular cannulae each received one of the following treatments: A) a single bolus intravenous injection of Gabapentin (25 mg/kg, as a solution in water); B) a single oral dose of Gabapentin (25 mg/kg, as a solution in water) administered by oral gavage; C) a single oral dose of (9g) (103.5 mg/kg, as a solution in water) administered by oral gavage. Animals were fasted overnight prior to dosing and until 4 hours post-dosing. Serial blood samples were obtained over 24 hours following dosing and blood was processed for plasma by centrifugation. Plasma samples were stored at −80° C. until analyzed.
Concentrations of (9g) or (2) in plasma samples were determined by LC/MS/MS as described above. Plasma (50 μL) was precipitated by addition of […] of methanol and supernatent was injected directly onto the LC/MS/MS system.

The target in data set [4] is T3, rPEPT1 (Rattus norvegicus, UniProt P51574).
T3 construct: expressed in transfected cells; host or cells: CHO cells
T3 sequence (P51574 1-710): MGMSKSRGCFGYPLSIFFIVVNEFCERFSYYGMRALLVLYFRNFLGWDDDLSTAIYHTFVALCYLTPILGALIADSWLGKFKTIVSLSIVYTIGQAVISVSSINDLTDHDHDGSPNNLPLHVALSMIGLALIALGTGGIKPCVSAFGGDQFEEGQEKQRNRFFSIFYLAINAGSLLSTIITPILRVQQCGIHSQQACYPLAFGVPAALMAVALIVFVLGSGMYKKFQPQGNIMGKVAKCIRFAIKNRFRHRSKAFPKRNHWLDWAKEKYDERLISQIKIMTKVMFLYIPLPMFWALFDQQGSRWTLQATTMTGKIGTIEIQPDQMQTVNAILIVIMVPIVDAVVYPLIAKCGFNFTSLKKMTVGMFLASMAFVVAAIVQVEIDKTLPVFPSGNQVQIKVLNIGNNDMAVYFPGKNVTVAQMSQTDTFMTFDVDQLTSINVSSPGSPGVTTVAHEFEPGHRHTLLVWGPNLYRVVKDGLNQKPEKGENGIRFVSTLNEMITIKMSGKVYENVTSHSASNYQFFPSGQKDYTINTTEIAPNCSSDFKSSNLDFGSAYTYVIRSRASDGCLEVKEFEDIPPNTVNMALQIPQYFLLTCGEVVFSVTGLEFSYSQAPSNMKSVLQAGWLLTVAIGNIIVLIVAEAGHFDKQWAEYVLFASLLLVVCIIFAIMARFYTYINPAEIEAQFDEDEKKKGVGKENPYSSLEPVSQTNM
Nature of the data set: Inhibition of radiolabeled Gly-Sar uptake in rPEPT1-expressing CHO cells. The class given is cell-based. As for the experimental part: (§3) Rat and human PEPT1 and PEPT2 expressing CHO cell lines were prepared as described in PCT Application WO01/20331. Gabapentin-containing dipeptides were evaluated for interaction with the peptide transporters using a radiolabeled substrate uptake assay in a competitive inhibition format, as described in PCT Application WO01/20331. Transport-induced currents were also measured in Xenopus oocytes transfected with rat and human PEPT1 and PEPT2.

The target in data set [5] is T3, rPEPT1. The data set can be described thus: Transport-induced currents in Xenopus oocytes expressing rPEPT1. The class given is cell-based. The following applies: relative to Gly-Sar, test compound 1 mM. As for the experimental part:
as §3

For data set [6], the target named is T4, rPEPT2 (Rattus norvegicus, UniProt Q63424).
T4 construct: expressed in transfected cells; host or cells: Xenopus oocytes
T4 sequence (Q63424 1-729): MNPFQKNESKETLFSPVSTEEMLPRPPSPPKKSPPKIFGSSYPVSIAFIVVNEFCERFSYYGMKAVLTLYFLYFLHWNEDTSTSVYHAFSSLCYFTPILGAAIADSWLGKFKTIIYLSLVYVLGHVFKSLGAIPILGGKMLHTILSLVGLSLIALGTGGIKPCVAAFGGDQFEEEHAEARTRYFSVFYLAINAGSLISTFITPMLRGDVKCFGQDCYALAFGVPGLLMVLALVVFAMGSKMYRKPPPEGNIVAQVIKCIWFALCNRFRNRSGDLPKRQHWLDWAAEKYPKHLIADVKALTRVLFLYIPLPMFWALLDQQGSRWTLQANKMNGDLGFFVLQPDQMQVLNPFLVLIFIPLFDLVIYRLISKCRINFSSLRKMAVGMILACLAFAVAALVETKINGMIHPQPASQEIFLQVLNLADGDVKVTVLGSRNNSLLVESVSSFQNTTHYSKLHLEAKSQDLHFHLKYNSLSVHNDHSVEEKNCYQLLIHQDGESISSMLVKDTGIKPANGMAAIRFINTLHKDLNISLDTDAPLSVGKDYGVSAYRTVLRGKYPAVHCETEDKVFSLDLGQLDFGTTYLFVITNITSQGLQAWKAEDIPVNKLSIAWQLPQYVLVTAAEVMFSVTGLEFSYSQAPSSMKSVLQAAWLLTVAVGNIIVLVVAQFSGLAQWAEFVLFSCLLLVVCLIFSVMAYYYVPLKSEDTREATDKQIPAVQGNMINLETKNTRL
The data set can be described thus: Transport-induced currents in Xenopus oocytes expressing rPEPT2. As to conditions: relative to Gly-Sar, test compound 1 mM. It counts as cell-based. The method, then:
as §3

Data set [7] concerns the target T4, rPEPT2. Nature of the data set: Inhibition of radiolabeled Gly-Sar uptake in rPEPT2-expressing CHO cells. The class given is cell-based. As for the experimental part:
as §3

The IC50 is the concentration that gives 50% inhibition. A word on the EC50: it is the concentration that produces a half-maximal response. A high value points to weaker potency. For `C[C@H](CCC(=O)NCC(=O)NCC1(CC(=O)O)CCCCC1)[C@H]1CC[C@H]2[C@@H]3[C@H](O)C[C@@H]4C[C@H](O)CC[C@]4(C)[C@H]3C[C@H](O)[C@]12C` [Cholyl-Gly-Gabapentin (9a), Cholyl-Gly-Gabapentin], the results for the IC50 on LBAT transporter and at IBAT transporter [1] were 64 µM and 66 µM, respectively. Also, the midpoint of the response on IBAT transporter [2], the EC50, lay at 22 µM.

At LBAT transporter, `CC(CCC(=O)NC(Cc1ccc(O)cc1)C(=O)NCC1(CC(=O)O)CCCCC1)C1CCC2C3C(O)CC4CC(O)CCC4(C)C3CC(O)C12C` (centres unmarked) [Cholyl-Tyr-Gabapentin (9h), Cholyl-Tyr-Gabapentin] came in with an IC50 of 15 µM. Also, the IC50 on IBAT transporter [1] came to 52 µM. Moreover, on IBAT transporter [2], it took 160 µM to reach a half-maximal effect (EC50) and the “% Max. (GDC)” value was determined as 13%.

As a reminder, the bioavailability is the share of a dose that reaches the circulation, judged against a reference dose that is usually intravenous. Read a low bioavailability as poor availability. By Tmax is commonly meant the time at which the peak concentration occurs. The term half-life denotes the time needed for the level to fall by half in the phase considered. In data set [3] (oral), `NCC1(CC(=O)O)CCCCC1` [Gabapentin, gabapentin] yielded a bioavailability of 87 ± 18%. Moreover, in data set [3] (po), the time to peak (Tmax) stood at 1.3 ± 0.5 h and the half-life was 3 ± 1.3 h.

Take `NCC(=O)NCC1(CC(=O)O)CCCCC1` [Gly-Gabapentin]: on rPEPT1 [4] (radiolabeled competition assay in rPEPT1-expressing CHO cells, read-out: IC50), the IC50 was found to be 320 µM. Further, the “% Max. (Gly-Sar)” value at rPEPT1 [5] was 76%.

On to `NC(Cc1ccccc1)C(=O)NCC1(CC(=O)O)CCCCC1` (centres unmarked) [Phe-Gabapentin], for which, at rPEPT1 [4], the IC50 is 56 µM. Moreover, the “% Max. (Gly-Sar)” value is 77% at rPEPT2 [6] and 52% at rPEPT1 [5].

For the molecule `NC(Cc1ccc(O)cc1)C(=O)NCC1(CC(=O)O)CCCCC1` (centres unmarked) [Tyr-Gabapentin], the values for the IC50 at rPEPT1 [4] and on rPEPT2 [7] were 130 µM and 4 µM, respectively. Further, the results for the “% Max. (Gly-Sar)” value at rPEPT2 [6] and on rPEPT1 [5] were 73% and 22%, respectively.

As to `CC(CCC(=O)NC(Cc1ccccc1)C(=O)NCC1(CC(=O)O)CCCCC1)C1CCC2C3C(O)CC4CC(O)CCC4(C)C3CCC12C` (centres unmarked) [UDC-Phe-Gabapentin (9p), Ursodeoxycholyl-Phe-Gabapentin], on LBAT transporter, the half-inhibitory concentration (IC50) turned out to be 0.7 µM. Besides, the IC50 on IBAT transporter [1] is 27 µM. Further, at IBAT transporter [2], the midpoint of the response, the EC50, lay at 18 µM and the “% Max. (GDC)” value came to 27%.
